# Experimental data from patent US7109341B2, “Therapeutic amides” (Wayne State University, priority 2002, dated 2006).
# Values joined by “and” are separate entries in the source; they are usually repeats but may differ in a detail not shown here. Equal entries are not always repeated. “Also recorded” adds a separate entry of the source. Where two headings read alike, the source gives them in different places.
# How the values were obtained:
# [1] = tested on: Pancreatic Ductal Adenocarcinoma 03; assay: Evaluation against early stage Pancreatic Ductal Adenocarcinoma 03, IP route, C57 females (Table 9); type: in vivo
# Protocol: The IP route was used for two reasons. […] This is approximately 40% of the dose given IV with the racemic mix (60 mg/kg, see Table 7).
# [2] = Water solubility noted on drug preparation for injection; type: physicochemical; settings: for Preparation: state of the injection preparation: white solid + 3% EtOH + 1% POE + 0.25% NaHCO3 + saline, pH = 8.0
# Protocol: (§1) Compounds as their sodium salts were prepared in a 1% sodium bicarbonate solution, H2O or phosphate buffered saline (PBS), with pH adjusted to 7.0 to 7.5 with HCl, and administered intravenously (IV) or orally (PO), at injection volumes of 0.2 mL per injection.
# [3] = tested on: Pancreatic Ductal Adenocarcinoma #03; assay: Evaluation against early stage Pancreatic Ductal Adenocarcinoma #03, BD1 female mice (Table 2); settings: PO
# [4] = tested on: Pancreatic Ductal Adenocarcinoma 03;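 note: mice carrying bilateral subcutaneous tumors, with tumor weight estimated from two-dimensional caliper readings taken twice a week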
# From the text: Pancreatic ductal adenocarcinoma-03, mammary adenocarcinoma-16/C, mammary adenocarcinoma-17/Adr, and human melanoma LOX were used in the studies. Tumors were maintained in the mouse strain of origin (C57B1/6 for Panc-03 and C3H for the mammary tumors). Balb/c SCID mice (B and T cell deficient) were used for tumor maintenance and chemotherapy trials involving the human melanoma LOX. Tumors were transplanted into the appropriate F1 hybrid (B6D2F1=C57B 1/6 female× DBA/2 male) or the strain of origin for the chemotherapy trials. Individual mouse body weights for each experiment were within 5 grams, and all mice were over 17 grams at the start of therapy. The mice were supplied food and water ad libitum.
# Animals were pooled, implanted subcutaneously with 30 to 60 mg tumor fragments by a 12 gauge trocar on day 0, and again pooled before unselective distribution to the various treatment and control groups. For early stage treatment, chemotherapy was started within 1 to 3 days after tumor implantation while the number of cells was relatively small (10^7 to 10^8 cells). For upstaged or advanced staged trials, the tumors were allowed to grow for five or more days before treatment was started. Tumors were measured with a caliper twice weekly. […] Tumor weights are estimated from two-dimensional measurements:
# Tumor weight (in mg)=(a×b^2)/2, where a and b are the tumor length and width in (mm), respectively.
# a) Tumor growth delay (T−C value), where T is the median time (in days) required for the treatment group tumors to reach a predetermined size (e.g., 1,000 mg), and C is the median time (in days) for the control group tumors to reach the same size. Tumor-free survivors were are excluded from these calculations (cures are tabulated separately). This value is an important criterion of anti-tumor effectiveness because it allows the quantification of tumor cell kill.
# b) Calculation of tumor cell kill for subcutaneously (SC) growing tumors. […] The conversion of the T−C values to log10 cell kill is possible because the Td of tumors re-growing post treatment (Rx) approximates the Td values of the tumors in untreated control mice.
# It should be noted that an activity rating of +++ to ++++ is needed to effect partial regression (PR) or complete regression (CR) of 100 to 300 mg size masses of most transplanted solid tumors of mice. Thus, an activity rating of + or ++ would not be scored as active by usual clinical criteria. A PR is a reduction in tumor mass to less than 50% of pretreatment size. A CR is a reduction in tumor mass to below palpable size (i.e., reduction to zero detectable mass).
# The T/C value in percent is an indication of anti-tumor effectiveness: A T/C=0% means no tumor growth. A T/C=100% means no anti-tumor activity, i.e., the treated and control tumors grew equally. […] A T/C value<10% is considered to indicate highly significant anti-tumor activity, and is the level used by NCI to justify a clinical trial if toxicity, formulation, and certain other requirements are met (termed DN-2 level activity).
# as §1
# Thus, for this test, all compounds initially were to be given IP, in an attempt to identify a suitable alternate route of administration.
# [5] = Cage 2, BID3–5, total 450 mg/kg
# [6] = Cage 3, BID3–7, total 450 mg/kg
# [7] = Cage 3, BID3–7, total 2,300 mg/kg
# [8] = Cage 4, BID 3, 4, total 480 mg/kg
# [9] = Cage 2, IP, 135 mg/kg day 3 only
# [10] = Cage 3, IP, 80 mg/kg day 3 only
# [11] = Cage 4, 50 mg/kg IP day 3, then IV Q2d×7 through day 15, total 455 mg/kg
# [12] = IP d3 then IV Q2d: 5–15, total dosage 455 mg/kg, BDF1 males
# [13] = IP, d 3, total dosage 80 mg/kg, BDF1 males
# [14] = IP, d 3, total dosage 135 mg/kg, BDF1 males
# [15] = Cage 8, 135 mg/kg IP day 3, then SC days 5, 7, 11, 13, 15, total 615 mg/kg
# [16] = Cage 9, IP, 80 mg/kg/inj days 3, 5, 7, 11, 13, 15, total 480 mg/kg
# [17] = Cage 10, IP, 50 mg/kg/inj Q2d×7 from day 3, total 350 mg/kg
# [18] = IP d 3 then SC d5, 7, 11, 13, 15, total dosage 615 mg/kg, BDF1 males
# [19] = IP, Q2d: 3–15, total dosage 350 mg/kg, BDF1 males
# [20] = IP, d3, 5, 7, 11, 13, 15, total dosage 480 mg/kg, BDF1 males
structure (smiles),measurement,setting,value
"CC(Oc1ccc(Oc2ccc3ccc(Br)cc3n2)cc1)C(=O)NCCS(=O)(=O)[O-].[Na+] [Compound 14g (R), Sodium (2-(4-(7-bromo-2-quinolinyl)oxy)phenoxy) propionylamino ethanesulfonate]",Day of Wt. Loss Nadir,[1]; [5],9 days
same,Drug Death (day of death),[1]; [5],one drug death and 1/5
same,Log Cell Kill,[1]; [5],1.52
same,Mean Body Wt. Loss in g/mouse,[1]; [5],−4.4 g/mouse
same,Median Tumor Burden in mg on d14 (range),[1]; [5],0 mg
same,T-C,[1]; [5],10.75 days
same,T/C %,[1]; [5],0%
same,Time to 1000 mg in days (range),[1]; [5],24.75 days
same,Tumor Free on d31,[1]; [5],0/5
same,day of body weight recovery,[1]; [5],≤ 17 days
same,toxicity observations,[1]; [5],increased urinary output and a sunken appearance
same,Day of Wt. Loss Nadir,[1]; [6],9 days
same,Drug Death (day of death),[1]; [6],0/5
same,Log Cell Kill,[1]; [6],1.72
same,Mean Body Wt. Loss in g/mouse,[1]; [6],−1.2 g/mouse
same,Median Tumor Burden in mg on d14 (range),[1]; [6],126 mg
same,T-C,[1]; [6],12 days
same,T/C %,[1]; [6],12.6%
same,Time to 1000 mg in days (range),[1]; [6],26 days
same,Tumor Free on d31,[1]; [6],0/5
same,water solubility,[2],Low water solubility limits
same,solubility limit,[2]; expressed as injectable dose,25 mg/kg (0.2 ml/inj)
CNC(=O)C(C)Oc1ccc(Oc2cnc3ccc(Cl)cc3n2)cc1 (stereo not drawn) [Compound 14b],water solubility,[2],water insoluble
same,Day of Wt. Loss Nadir,[3]; [7],8 days
same,Drug Deaths (day of death),[3]; [7],0/5
same,Growth Delay,[3]; [7],7.0 days
same,Log Cell Kill,[3]; [7],0.8
same,Mean Body Wt. Loss (g/mouse),[3]; [7],−2.0 g/mouse
same,Median Tumor Burden in mg on d18 (Range),[3]; [7],671 mg
same,T/C %,[3]; [7],39%
same,Time in days to 1000 mg (range),[3]; [7],21 days
same,Tumor Free on d 154,[3]; [7],0/5
same,day of full body weight recovery,[3]; [7],10 days
same,% Body Wt. Loss,[3]; [8],4%
same,Day of Wt. Loss Nadir,[3]; [8],5 days
same,Drug Deaths (day of death),[3]; [8],0/5
same,Growth Delay,[3]; [8],2.0 days
same,Log Cell Kill,[3]; [8],0.2
same,Mean Body Wt. Loss (g/mouse),[3]; [8],−0.8 g/mouse
same,Median Tumor Burden in mg on d18 (Range),[3]; [8],1266 mg
same,T/C %,[3]; [8],74%
same,Time in days to 1000 mg (range),[3]; [8],15 days
same,Tumor Free on d 154,[3]; [8],0/5
same,% Body Wt. Loss,"[3]; Cage 5, BID 3, total 108 mg/kg",0%
same,Day of Wt. Loss Nadir,"[3]; Cage 5, BID 3, total 108 mg/kg",5 days
same,Drug Deaths (day of death),"[3]; Cage 5, BID 3, total 108 mg/kg",0/5
same,Growth Delay,"[3]; Cage 5, BID 3, total 108 mg/kg",2.7 days
same,Log Cell Kill,"[3]; Cage 5, BID 3, total 108 mg/kg",0.3
same,Mean Body Wt. Loss (g/mouse),"[3]; Cage 5, BID 3, total 108 mg/kg",+0.4 g/mouse
same,Median Tumor Burden in mg on d18 (Range),"[3]; Cage 5, BID 3, total 108 mg/kg",1312 mg
same,T/C %,"[3]; Cage 5, BID 3, total 108 mg/kg",77%
same,Time in days to 1000 mg (range),"[3]; Cage 5, BID 3, total 108 mg/kg",15.7 days
same,Tumor Free on d 154,"[3]; Cage 5, BID 3, total 108 mg/kg",0/5
"CC(Oc1ccc(Oc2cnc3ccc(Cl)cc3n2)cc1)C(=O)NCC(=O)O [Compound 14i (R), {2-{4-(7-Chloro-quinoxalin-2-yloxy)-phenoxy}propionylamino}acetic acid]",Activity Rating,[4]; [9],+ (0.7–1.2)
same,T/C,[4]; [9],10%
same,log cell kill,[4]; [9],1.1
same,Activity Rating,[4]; [10],+ (0.7–1.2)
same,T/C,[4]; [10],37%
same,day of death,[4]; [10],4 days
same,deaths,[4]; [10],one injection death
same,log kill,[4]; [10],0.7
same,Activity Rating,[4]; [11],++ (1.3–1.9)
same,T/C,[4]; [11],10% and 8%
same,day of full weight recovery,[4]; [11],≤ 11 days
same,day of weight loss nadir,[4]; [11],7 days
same,log kill,[4]; [11],1.6
same,Comments (Active/Inactive),[4]; [12],Active
same,Comments (activity rating),[4]; [12],(++) (1.3–1.9)
same,Drug Death,[4]; [12],0/5
same,Log Cell Kill,[4]; [12],1.6
same,Median Tumor Burden in mg on d17,[4]; [12],151 mg
same,T-C,[4]; [12],11 days
same,T/C %,[4]; [12],8%
same,Time to 1000 mg,[4]; [12],26 days
same,Tumor Free on 148,[4]; [12],0/5
same,Comments (Active/Inactive),[4]; [13],Active
same,Comments (activity rating),[4]; [13],(+) (0.7–1.2)
same,Drug Death,[4]; [13],1/5
same,Drug Death (day of death),[4]; [13],(d4)
same,Log Cell Kill,[4]; [13],0.7
same,Median Tumor Burden in mg on d17,[4]; [13],675 mg
same,T-C,[4]; [13],5 days
same,T/C %,[4]; [13],37%
same,Time to 1000 mg,[4]; [13],20 days
same,Tumor Free on 148,[4]; [13],0/5
same,Comments (Active/Inactive),[4]; [14],Active
same,Comments (activity rating),[4]; [14],(+) (0.7–1.2)
same,Drug Death,[4]; [14],0/5
same,Log Cell Kill,[4]; [14],1.1
same,Median Tumor Burden in mg on d17,[4]; [14],189 mg
same,T-C,[4]; [14],7.5 days
same,T/C %,[4]; [14],10%
same,Time to 1000 mg,[4]; [14],22.5 days
same,Tumor Free on 148,[4]; [14],0/5
same,Day of Wt. Loss Nadir,"[4]; mouse, in vivo",7 days and 4 days
same,day of full weight recovery,"[4]; mouse, in vivo, ip, 135 mg/kg",≤ 9 days
same,day of weight loss nadir,"[4]; mouse, in vivo, ip, 135 mg/kg",7 days
same,toxicity observations,"[4]; mouse, in vivo, ip, 135 mg/kg",prolonged pain response
same,water solubility,[2],good water solubility
same,Preparation: state of the injection preparation,[2],"Compound 14i (R): white solid + 3% EtOH + 1% POE + 0.25% NaHCO3 + saline → solution (pH = 8.0); 0.5 ml/mouse/inj, IP; 0.2 ml/mouse/inj, IV."
"CC(Oc1ccc(Oc2ccc3ccc(Br)cc3n2)cc1)C(=O)NCC(=O)O [Compound 14h (R), {2-[4-(7-Bromo-quinolin-2-yloxy)-phenoxy]-propionylamino}acetic acid]",Activity Rating,[4]; [15],++ (1.3–1.9)
same,T/C,[4]; [15],3%
same,log cell kill,[4]; [15],1.9
same,T/C,[4]; [16],6%
same,log cell kill,[4]; [16],1.7
same,Activity Rating,[4]; [17],+ (0.7–1.2)
same,T/C,[4]; [17],16.5%
same,log kill,[4]; [17],1.0
same,Comments (Active/Inactive),[4]; [18],Inactive
same,Comments (activity rating),[4]; [18],(++) (1.3–1.9)
same,Drug Death,[4]; [18],0/5
same,Log Cell Kill,[4]; [18],1.9
same,Median Tumor Burden in mg on d17,[4]; [18],63 mg
same,T-C,[4]; [18],13 days
same,T/C %,[4]; [18],3%
same,Time to 1000 mg,[4]; [18],28 days
same,Tumor Free on 148,[4]; [18],0/5
same,Comments (Active/Inactive),[4]; [19],Active
same,Comments (activity rating),[4]; [19],(+) (0.7–1.2)
same,Drug Death,[4]; [19],0/5
same,Log Cell Kill,[4]; [19],1.0
same,Median Tumor Burden in mg on d17,[4]; [19],304 mg
same,T-C,[4]; [19],7 days
same,T/C %,[4]; [19],16.5%
same,Time to 1000 mg,[4]; [19],22 days
same,Tumor Free on 148,[4]; [19],0/5
same,Comments (Active/Inactive),[4]; [20],Active
same,Comments (activity rating),[4]; [20],(++) (1.3–1.9)
same,Drug Death,[4]; [20],0/5
same,Log Cell Kill,[4]; [20],1.7
same,Median Tumor Burden in mg on d17,[4]; [20],108 mg
same,T-C,[4]; [20],12 days
same,T/C %,[4]; [20],6%
same,Time to 1000 mg,[4]; [20],27 days
same,Tumor Free on 148,[4]; [20],0/5
same,Day of Wt. Loss Nadir,"[4]; mouse, in vivo",9 days and 10 days and 8 days
same,day of full weight recovery,"[4]; mouse, in vivo",20 days and 15 days
same,day of weight loss nadir,"[4]; mouse, in vivo",9 days and 10 days and 8 days
same,weight loss nadir,"[4]; mouse, in vivo",−13.3%
same,water solubility,[2],Low water solubility limits; also recorded: much lower water solubility
same,Preparation: state of the injection preparation,[2],"Compound 14h (R): white solid + 3% EtOH + 1% POE + 0.25% NaHCO3 + saline → suspension (pH = 8.0); 0.5 ml/mouse/inj, IP; 0.2 ml/mouse/inj, SC."
